According to paper PMC10572347, “Structure–Activity Relationships and Antiplasmodial Potencies of Novel 3,4-Disubstituted 1,2,5-Oxadiazoles” (International Journal of Molecular Sciences, 2023):
Read-outs that look alike come from different tables or passages of the source.

Columns and labels:
[1] = In vitro cytotoxicity with L-6 cells (resazurin); assay type: cell-based, rat; details: rat
Method: Serial drug dilutions of 11 3-fold dilution steps covering a range from 100 to 0.002 μg/mL were prepared. After 70 h of incubation, the plates were inspected under an inverted microscope to assure the growth of the controls and sterile conditions. […] The plates were read with a Spectramax Gemini XS microplate fluorometer (Molecular Devices Cooperation, Sunnyvale, CA, USA) using an excitation wavelength of 536 nm and an emission wavelength of 588 nm. The IC50 values were calculated by linear regression from the sigmoidal dose inhibition curves using SoftmaxPro software Version 8.2.1 (Molecular Devices Cooperation, Sunnyvale, CA, USA). Podophyllotoxin (Sigma P4405) was used as control.

CYP3A4 = CYP3A4 (Homo sapiens, UniProt P08684); test: Cytochrome P450 3A4 inhibition assay (P450-Glo, Luciferin-IPA); details: recombinant human CYP3A4 Supersomes (+ oxidoreductase + b5), pH 7.4, probe Luciferin-IPA
Chain of CYP3A4 (P08684 2-503 limits assumed): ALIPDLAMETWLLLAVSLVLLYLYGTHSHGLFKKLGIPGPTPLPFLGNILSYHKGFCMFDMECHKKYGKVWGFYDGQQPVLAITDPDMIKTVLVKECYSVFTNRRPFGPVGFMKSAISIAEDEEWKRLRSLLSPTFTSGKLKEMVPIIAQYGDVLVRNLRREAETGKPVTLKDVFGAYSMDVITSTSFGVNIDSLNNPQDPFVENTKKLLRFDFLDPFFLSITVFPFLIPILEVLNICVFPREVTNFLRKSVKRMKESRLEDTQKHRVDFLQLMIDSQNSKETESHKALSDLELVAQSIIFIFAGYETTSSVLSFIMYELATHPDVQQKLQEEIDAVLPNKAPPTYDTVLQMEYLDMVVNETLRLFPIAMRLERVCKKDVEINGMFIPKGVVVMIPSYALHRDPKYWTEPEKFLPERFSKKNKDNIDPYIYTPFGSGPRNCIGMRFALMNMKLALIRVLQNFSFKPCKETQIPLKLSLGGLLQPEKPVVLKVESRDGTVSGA
Method: The CYP3A4 inhibition assay was performed using 96-well white plates (Greiner Bio-One) at a pH of 7.4. […] Stock solutions were further diluted to a final concentration of 20 µM using water (HPLC grade). The luciferin IPA stock solution (3 mM) was diluted to a final concentration of 0.3 mM using water (HPLC grade). The CYP3A4 reaction mixture was prepared by mixing water (HPLC grade) with potassium phosphate buffer (1 M), luciferin IPA (0.3 mM) and CYP3A4 membrane (1 pmol/µL). The control reaction mixture was prepared using water (HPLC grade), potassium phosphate buffer (1 M), luciferin IPA (0.3 mM) and membrane without CYP activity (1 pmol/µL). Solutions A and B of the NADPH regeneration system were mixed and HPLC grade water was added. The reconstituted luciferin detection reagent was prepared by mixing the reconstituted buffer with esterase with the luciferin detection reagent. Then, solutions of test compounds and standard were added to the wells of the 96-well white plate; each was tested in triplicate. The CYP3A4 reaction mixture was added to each well and the plate was incubated for 10 min at room temperature. After that, the NADPH regeneration system was added, inducing the reaction followed by an incubation time of 10 min at ambient temperature. By adding the reconstituted luciferin detection reagent, the reaction was terminated and a luminescent signal was formed. Luminescence was measured by a SpectraMax M3 UV plate reader (Molecular Devices). The relative light units (RLU) were received from a calibration curve with beetle luciferin. […] The CYP3A4 inhibition (%) was calculated from the RLU.

P. falciparum NF54 = test: In vitro microplate assay against P. falciparum (3H-hypoxanthine incorporation); assay type: cell-based, Plasmodium falciparum; details: for S.I. = IC50 (Cyt.)/IC50 (P.f.NF54): L-6 cells vs P.f. NF54; for IC50: average of four determinations, read-out: P.f. NF54 IC50
Method: In vitro activity against the erythrocytic stages of P. falciparum was determined using a ^3H-hypoxanthine incorporation assay, using the drug sensitive NF54 strain [37]. […] The 96-well plates were incubated in a humidified atmosphere at 37 °C, 4% CO2, 3% O2 and 93% N2. After 48 h, 0.05 mL of ^3H-hypoxanthine (=0.5 µCi) was added to each well of the plate. The plates were incubated for a further 24 h under the same conditions. The plates were then harvested with a Betaplate cell harvester (Wallac, Zurich, Switzerland). The red blood cells were transferred onto a glass fiber filter and washed with distilled water. The dried filters were inserted into a plastic foil with 10 mL of scintillation fluid and counted in a Betaplate liquid scintillation counter (Wallac, Zurich, Switzerland). The IC50 values were calculated from sigmoidal inhibition curves by linear regression using Microsoft Excel. Chloroquine (Sigma C6628) was used as control.

[2] = Plasmodium falciparum, NF54, chloroquine-sensitive strain NF54
[3] = chloroquine-sensitive strain NF54

Structure (SMILES)	inhibition at 10 min, 20 µM (CYP3A4) [%]	S.I. = IC50 (Cyt.)/IC50 (P.f.NF54) (P. falciparum NF54)	melting point [°C]	IC50 (P. falciparum NF54; [2]) [µM]	IC50 (P. falciparum NF54; [3]) [µM]	IC50 at 72 h [1] [µM]
Cc1cccc(C(=O)Nc2nonc2-c2ccc(F)cc2)c1 [Compound 49, N-[4-(4-Fluorophenyl)-1,2,5-oxadiazol-3-yl]-3-methylbenzamide]	84	4.328	–	–	–	35.1
Nc1cccc(-c2nonc2NC(=O)c2cccc(C(F)(F)F)c2)c1 [Compound 63, N-[4-(3-Aminophenyl)-1,2,5-oxadiazol-3-yl]-3-(trifluoromethyl)benzamide]	–	1.201	–	–	–	21.2
O=C(Nc1nonc1-c1ccc(Cl)cc1)c1cccc(F)c1 [Compound 46, N-[4-(4-Chlorophenyl)-1,2,5-oxadiazol-3-yl]-3-fluorobenzamide]	–	1.155	180	10.1	–	11.7
CCOc1ccc(-c2nonc2NC(=O)c2cccc(C)c2)cc1OC [Compound 52, N-[4-(4-Ethoxy-3-methoxyphenyl)-1,2,5-oxadiazol-3-yl]-3-methylbenzamide]	52	86.47	260	0.275	–	23.8
Nc1cccc(-c2nonc2NC(=O)c2cccc(F)c2)c1 [Compound 62, N-[4-(3-Aminophenyl)-1,2,5-oxadiazol-3-yl]-3-fluorobenzamide]	–	6.107	163	–	32	195
O=C(Nc1nonc1-c1cccc([N+](=O)[O-])c1)c1cccc(F)c1 [Compound 43, 3-Fluoro-N-[4-(3-nitrophenyl)-1,2,5-oxadiazol-3-yl]benzamide]	79	0.104	174	26.7	–	2.77
Nc1cccc(-c2nonc2NC(=O)c2ccccc2)c1 [Compound 60, N-[4-(3-Aminophenyl)-1,2,5-oxadiazol-3-yl]benzamide]	–	4.039	178	–	–	217
Nc1ccc(-c2nonc2NC(=O)c2cccc(C(F)(F)F)c2)cc1 [Compound 58, N-[4-(4-Aminophenyl)-1,2,5-oxadiazol-3-yl]-3-(trifluoromethyl)benzamide]	–	3.548	154	9.26	–	32.9
CCOc1cc(-c2nonc2NC(=O)c2cccc(C)c2)ccc1OC [Compound 51, N-[4-(3-Ethoxy-4-methoxyphenyl)-1,2,5-oxadiazol-3-yl]-3-methylbenzamide]	66	1526	280	0.034	–	51.9
Nc1ccc(-c2nonc2NC(=O)c2cccc(F)c2)cc1 [Compound 57, N-[4-(4-Aminophenyl)-1,2,5-oxadiazol-3-yl]-3-fluorobenzamide]	–	18.90	189	10.5	–	198

Second part, led by results:

inhibition at 10 min, 20 µM (CYP3A4) [%]	S.I. = IC50 (Cyt.)/IC50 (P.f.NF54) (P. falciparum NF54)	melting point [°C]	IC50 (P. falciparum NF54; [2]) [µM]	IC50 (P. falciparum NF54; [3]) [µM]	Structure (SMILES)	IC50 at 72 h [1] [µM]
–	31.54	250	3.14	–	COc1ccc(C(=O)Nc2nonc2-c2ccc(N)cc2)cc1Cl [Compound 59, N-[4-(4-Aminophenyl)-1,2,5-oxadiazol-3-yl]-3-chloro-4-methoxybenzamide]	98.9
99	6.182	172	30.2	–	Cc1cccc(C(=O)Nc2nonc2-c2cccc(N)c2)c1 [Compound 61, N-[4-(3-Aminophenyl)-1,2,5-oxadiazol-3-yl]-3-methylbenzamide]	186
60	1.000	169	11.2	–	O=C(Nc1nonc1-c1ccc(F)cc1)c1cccc(F)c1 [Compound 45, 3-Fluoro-N-[4-(4-fluorophenyl)-1,2,5-oxadiazol-3-yl]benzamide]	11.2
–	15.70	159	6.83	–	Cc1cccc(C(=O)Nc2nonc2-c2ccc(N)cc2)c1 [Compound 56, N-[4-(4-Aminophenyl)-1,2,5-oxadiazol-3-yl]-3-methylbenzamide]	107
68	–	–	0.99	–	Cc1cccc(C(=O)Nc2nonc2-c2ccc([N+](=O)[O-])cc2)c1 [Compound 38, 3-Methyl-N-[4-(4-nitrophenyl)-1,2,5-oxadiazol-3-yl]benzamide]	3.47
94	0.198	–	8.64	–	O=C(Nc1nonc1-c1cccc([N+](=O)[O-])c1)c1cccc(C(F)(F)F)c1 [Compound 44, N-[4-(3-Nitrophenyl)-1,2,5-oxadiazol-3-yl]-3-(trifluoromethyl)benzamide]	1.71
–	0.599	–	8.44 to 17.7	8.44	O=C(Nc1nonc1-c1ccc(Cl)cc1)c1cccc(C(F)(F)F)c1 [Compound 48, N-[4-(4-Chlorophenyl)-1,2,5-oxadiazol-3-yl]-3-(trifluoromethyl)benzamide]	5.06
87	0.464	158	11.5	–	Cc1cccc(C(=O)Nc2nonc2-c2cccc([N+](=O)[O-])c2)c1 [Compound 42, 3-Methyl-N-[4-(3-nitrophenyl)-1,2,5-oxadiazol-3-yl]benzamide]	5.32
43	0.809	–	5.33	–	O=C(Nc1nonc1-c1ccc([N+](=O)[O-])cc1)c1cccc(F)c1 [Compound 39, 3-Fluoro-N-[4-(4-nitrophenyl)-1,2,5-oxadiazol-3-yl]benzamide]	4.31
82	0.666	179	9.11	–	O=C(Nc1nonc1-c1cccc([N+](=O)[O-])c1)c1ccccc1 [Compound 41, N-[4-(3-Nitrophenyl)-1,2,5-oxadiazol-3-yl]benzamide]	6.07
–	–	261	0.323	–	COc1ccc(C(=O)Nc2nonc2-c2ccc([N+](=O)[O-])cc2)cc1Cl [Compound 53, 3-Chloro-4-methoxy-N-[4-(4-nitrophenyl)-1,2,5-oxadiazol-3-yl]benzamide]	3.35
–	16.62	169	7.42	–	Nc1ccc(-c2nonc2NC(=O)c2ccccc2)cc1 [Compound 55, N-[4-(4-Aminophenyl)-1,2,5-oxadiazol-3-yl]benzamide]	123
–	0.932	248	5.92	–	COc1ccc(C(=O)Nc2nonc2-c2cccc([N+](=O)[O-])c2)cc1Cl [Compound 54, 3-Chloro-4-methoxy-N-[4-(3-nitrophenyl)-1,2,5-oxadiazol-3-yl]benzamide]	5.52
